Assay results as given in US20220380319A1 (Bial - R&D Investments, S.A., priority 2019, published 2022).
≈ marks a conversion by molar mass, not a printed value.

Legend:
[1] = Compound solubility in water
acid ceramidase = target: T1, acid ceramidase (Homo sapiens, UniProt Q13510); experiment: Acid ceramidase inhibition, biochemical fluorescent assay with cell lysates overexpressing acid ceramidase, substrate Rbm14-12; conditions: substrate Rbm14-12 6.3 μM
T1 construct: Cell lysates overexpressing acid ceramidase were used as the enzyme source; expressed in transfected cells
T1 sequence (Q13510 22-395): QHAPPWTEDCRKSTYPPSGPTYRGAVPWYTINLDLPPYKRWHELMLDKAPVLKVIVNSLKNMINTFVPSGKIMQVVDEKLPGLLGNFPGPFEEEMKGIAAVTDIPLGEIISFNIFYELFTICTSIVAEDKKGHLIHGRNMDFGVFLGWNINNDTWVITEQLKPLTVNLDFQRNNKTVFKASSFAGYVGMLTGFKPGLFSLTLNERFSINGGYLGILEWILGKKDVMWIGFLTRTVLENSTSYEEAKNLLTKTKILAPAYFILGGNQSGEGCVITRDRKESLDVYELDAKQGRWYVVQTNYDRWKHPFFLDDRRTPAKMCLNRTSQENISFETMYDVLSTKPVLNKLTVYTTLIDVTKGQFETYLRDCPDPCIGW
Summary of the method: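 IC50 derived by four-parameter fitting of fluorescence (ex360 nm, em446 nm) produced after 1 hr in methanol/NaIO4/glycine stop buffer, pH 10.6. Reaction: 6.3 μM Rbm14-12, 1 hr RT, following 1 hr RT compound preincubation with 10 μg overexpressing-cell lysate protein in pH 4.5 NaAC/NaCl buffer.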

[2] = pH 4.5, 1 hr preincubation at RT

Structure (SMILES) | solubility [1] | IC50 (acid ceramidase; pH 4.5) | IC50 (acid ceramidase; [2])
CN1CCN(c2cccc3c2ncn3C(=O)NCC#CCC2(C(F)(F)F)CC2)CC1 [Example 285, 4-(4-Methylpiperazin-1-yl)-N-(4-(1-(trifluoromethyl)cyclopropyl)but-2-yn-1-yl)-1H-benzo[d]imidazole-1-carboxamide] | 22 µg/mL (≈ 52.4 µM) | < 200 nM | 
CCOc1nc2ccc(N3CCOCC3)cc2n1C(=O)NCCCc1ccccc1 [Example 189b, 2-ethoxy-6-morpholino-N-(3-phenylpropyl)-1H-benzo[d]imidazole-1-carboxamide] | 3 µg/mL (≈ 7.34 µM) | < 200 nM | 
CC(C)CCNC(=O)n1cnc2c(N3CCOC(C)(C)C3)cccc21 [Example 170, 4-(2,2-Dimethylmorpholino)-N-isopentyl-1H-benzo[d]imidazole-1-carboxamide] | 14 µg/mL (≈ 40.6 µM) | 200 to 1000 nM | 
O=C(NCCc1ccccc1)n1cnc2ccc(-c3cncnc3)cc21 [Example 8b, N-phenethyl-6-(pyrimidin-5-yl)-1H-benzo[d]imidazole-1-carboxamide] | 14.5 µg/mL (≈ 42.2 µM) |  | < 200 nM
CC(C)CC1(CNC(=O)n2cnc3c(N4CCOCC4)cccc32)CC1 [Example 227, N-((1-iso-Butylcyclopropyl)methyl)-4-morpholino-1H-benzo[d]imidazole-1-carboxamide] | 16 µg/mL (≈ 44.9 µM) | < 200 nM | 
CC(C)CCNC(=O)n1c(=O)n(C)c2ncccc21 [Example 105, N-iso-Pentyl-3-methyl-2-oxo-2,3-dihydro-1H-imidazo[4,5-b]pyridine-1-carboxamide] | 17.4 µg/mL (≈ 66.3 µM) |  | > 1000 nM
COc1nc2cc(C3CCN(C)CC3)ccc2n1C(=O)NCC(C)C [Example 193, N-iso-Butyl-2-methoxy-5-(1-methylpiperidin-4-yl)-1H-benzo[d]imidazole-1-carboxamide] | 39 µg/mL (≈ 113 µM) | > 1000 nM | 
CCCN1CCN(c2cccc3c2ncn3C(=O)NCCC(C)C)CC1 [Example 202, N-iso-Pentyl-4-(4-propylpiperazin-1-yl)-1H-benzo[d]imidazole-1-carboxamide] | 15 µg/mL (≈ 42 µM) | 200 to 1000 nM | 
CC(C)CCNC(=O)n1cnc2c(N3CCN(C)CC3)cccc21 [Example 119, N-iso-Pentyl-4-(4-methylpiperazin-1-yl)-1H-benzo[d]imidazole-1-carboxamide] | 23 µg/mL (≈ 69.8 µM) |  | 200 to 1000 nM
COc1nc2ccc(N3CCOCC3)cc2n1C(=O)NCCCc1nccs1 [Example 196, 2-Methoxy-6-morpholino-N-(3-(thiazol-2-yl)propyl)-1H-benzo[d]imidazole-1-carboxamide] | 35 µg/mL (≈ 87.2 µM) | 200 to 1000 nM | 
COc1nc2cc(F)c(N3CCOCC3)cc2n1C(=O)NCCCCc1ccccc1 [Example 214, 5-Fluoro-2-methoxy-6-morpholino-N-(4-phenylbutyl)-1H-benzo[d]imidazole-1-carboxamide] | 0.3 µg/mL (≈ 0.703 µM) | < 200 nM | 
COc1nc2cc(N3CCOCC3)ccc2n1C(=O)NCCC1CC1C(F)(F)F (centres unmarked) [Example 230b, 2-methoxy-5-morpholino-N-(2-(2-(trifluoromethyl)cyclopropyl)-ethyl)-1H-benzo[d]imidazole-1-carboxamide] | 32 µg/mL (≈ 77.6 µM) | 200 to 1000 nM | 
CC(C)CCNC(=O)n1cnc2c(N3CCN(C)C4(CC4)C3)cccc21 [Example 157, N-iso-Pentyl-4-(4-methyl-4,7-diazaspiro[2.5]-octan-7-yl)-1H-benzo[d]imidazole-1-carboxamide] | 27 µg/mL (≈ 76 µM) |  | 200 to 1000 nM
CC(C)CCNC(=O)n1cnc2cc(-c3cncnc3)ccc21 [Example 103b, N-iso-pentyl-5-(pyrimidin-5-yl)-1H-benzo[d]imidazole-1-carboxamide] | 11.9 µg/mL (≈ 38.5 µM) |  | < 200 nM
COc1nc2c(N3CCOCC3)cccc2n1C(=O)NCCC(C)C [Example 146, N-iso-Pentyl-2-methoxy-4-morpholino-1H-benzo[d]imidazole-1-carboxamide] | 17 µg/mL (≈ 49.1 µM) |  | > 1000 nM
COc1c(-c2cncnc2)ccc2c1ncn2C(=O)NCC(C)C [Example 75, N-isoButyl-4-methoxy-5-(pyrimidin-5-yl)-1H-benzo[d]imidazole-1-carboxamide] | 27 µg/mL (≈ 83 µM) |  | 200 to 1000 nM
O=C(NC1CCCCC1)n1cnc2c(N3CCOCC3)cccc21 [Example 149, N-Cyclohexyl-4-morpholino-1H-benzo[d]imidazole-1-carboxamide] | 15 µg/mL (≈ 45.7 µM) |  | > 1000 nM
CN1CCN(CCOc2nc3ccccc3n2C(=O)NCC#Cc2ccccc2)CC1 [Example 348, 2-(2-(4-Methylpiperazin-1-yl)ethoxy)-N-(3-phenylprop-2-yn-1-yl)-1H-benzo[d]imidazole-1-carboxamide] | 8 µg/mL (≈ 19.2 µM) |  | < 200 nM
O=C(NCCc1ccccc1)n1c(OCCN2CCOCC2)nc2ccccc21 [Example 357, 2-(2-Morpholinoethoxy)-N-phenethyl-1H-benzo[d]imidazole-1-carboxamide] | 6 µg/mL (≈ 15.2 µM) |  | 200 to 1000 nM
CC(C)CCNC(=O)n1cnc2c(C3CCN(C)CC3)cc(Cl)cc21 [Example 112b] | 20 µg/mL (≈ 55.1 µM) |  | 200 to 1000 nM
CCOc1nc2ncccc2n1C(=O)NCCC(C)C [Example 114, 2-Ethoxy-N-iso-pentyl-1H-imidazo[4,5-b]pyridine-1-carboxamide] | 16.8 µg/mL (≈ 60.8 µM) |  | 200 to 1000 nM
CC(C)C#CCNC(=O)n1cnc2c(N3CC4(CCN4C)C3)cccc21 [Example 359, 4-(1-Methyl-1,6-diazaspiro[3.3]heptan-6-yl)-N-(4-methylpent-2-yn-1-yl)-1H-benzo[d]imidazole-1-carboxamide] | 23 µg/mL (≈ 65.4 µM) |  | 200 to 1000 nM
COc1nc2c(C#N)cccc2n1C(=O)NCC#CC(C)C [Example 140, 4-Cyano-2-methoxy-N-(4-methylpent-2-ynyl)-1H-benzo[d]imidazole-1-carboxamide] | 10 µg/mL (≈ 33.7 µM) |  | < 200 nM

Other lines, results leading:

solubility [1] | IC50 (acid ceramidase; pH 4.5) | IC50 (acid ceramidase; [2]) | Structure (SMILES)
13.8 µg/mL (≈ 49.4 µM) |  | < 200 nM | O=C(NCCCc1ccccc1)n1cnc2ccccc21 [Example 5, N-(3-Phenylpropyl)-1H-benzo[d]imidazole-1-carboxamide]
2.6 µg/mL (≈ 8.8 µM) |  | < 200 nM | COc1ccc2c(c1)ncn2C(=O)NCCc1ccccc1 [Example 25a, 5-Methoxy-N-phenethyl-1H-benzo[d]imidazole-1-carboxamide]
41 µg/mL (≈ 91.8 µM) | < 200 nM |  | CN1CC(N2CC3CC2CN3c2cccc3c2ncn3C(=O)NCCOc2ccccc2)C1 (centres unmarked) [Example 328, 4-(5-(1-Methylazetidin-3-yl)-2,5-diazabicyclo[2.2.1]heptan-2-yl)-N-(2-phenoxyethyl)-1H-benzo[d]imidazole-1-carboxamide]
0.6 µg/mL (≈ 1.59 µM) |  | < 200 nM | O=C(NCCCCc1ccccc1)n1cnc2c(N3CCOCC3)cccc21 [Example 137, 4-Morpholino-N-(4-phenylbutyl)-1H-benzo[d]imidazole-1-carboxamide]
2.7 µg/mL (≈ 9.02 µM) |  | < 200 nM | O=C(NCCOc1ccccc1)n1cnc2c(F)cccc21 [Example 73, 4-Fluoro-N-(2-phenoxyethyl)-1H-benzo[d]imidazole-1-carboxamide]
3.5 µg/mL (≈ 11.9 µM) |  | < 200 nM | O=C(NCCCOc1ccccc1)n1cnc2ccccc21 [Example 43, N-(3-Phenoxypropyl)-1H-benzo[d]imidazole-1-carboxamide]
22.7 µg/mL (≈ 52.7 µM) |  | < 200 nM | CN1CCC(c2cc(C(F)(F)F)cc3c2ncn3C(=O)NCCc2ccccc2)CC1 [Example 54, 4-(1-Methylpiperidin-4-yl)-N-phenethyl-6-(trifluoromethyl)-1H-benzo[d]imidazole-1-carboxamide]
26.5 µg/mL (≈ 70 µM) |  | < 200 nM | CN1CCC(Oc2cccc3c2ncn3C(=O)NCCc2ccccc2)CC1 [Example 86, 4-((1-Methylpiperidin-4-yl)oxy)-N-phenethyl-1H-benzo[d]imidazole-1-carboxamide]
10.5 µg/mL (≈ 27.6 µM) |  | < 200 nM | COc1c(N2CCOCC2)ccc2c1ncn2C(=O)NCCc1ccccc1 [Example 40, 4-Methoxy-5-morpholino-N-phenethyl-1H-benzo[d]imidazole-1-carboxamide]
5.4 µg/mL (≈ 15.7 µM) |  | < 200 nM | O=C(NCCc1ccccc1)n1cnc2cc(-c3ncccn3)ccc21 [Example 9, N-Phenethyl-5-(pyrimidin-2-yl)-1H-benzo[d]imidazole-1-carboxamide]
11 µg/mL (≈ 30.3 µM) | 200 to 1000 nM |  | CN1CCN(c2cccc3c2ncn3C(=O)NCCc2ccccc2)CC1 [Example 324, 4-(4-Methylpiperazin-1-yl)-N-phenethyl-1H-benzo[d]imidazole-1-carboxamide]
2 µg/mL (≈ 5.73 µM) |  | < 200 nM | O=C(NCCOc1ccccc1)n1cnc2c(C(F)(F)F)cccc21 [Example 72, N-(2-Phenoxyethyl)-4-(trifluoromethyl)-1H-benzo[d]imidazole-1-carboxamide]
8.4 µg/mL (≈ 27.2 µM) |  | < 200 nM | CCOc1nc2ccccc2n1C(=O)NCCc1ccccc1 [Example 36, 2-Ethoxy-N-phenethyl-1H-benzo[d]imidazole-1-carboxamide]
35 µg/mL (≈ 80.5 µM) | < 200 nM |  | CN1CCN(C2CN(c3cccc4c3ncn4C(=O)NCCOc3ccccc3)C2)CC1 [Example 314, 4-(3-(4-Methylpiperazin-1-yl)azetidin-1-yl)-N-(2-phenoxyethyl)-1H-benzo[d]imidazole-1-carboxamide]
